# Patent US20220324880A1, “SMARCA INHIBITORS AND USES THEREOF” (Kymara Therapeutics, Inc., priority 2019, published 2022)
# Target: T1, SMARCA2 (Homo sapiens, UniProt P51531)
# Experiment: SMARCA2 BromoScan bromodomain binding assay (phage-displayed bromodomain, qPCR readout)
# Parameters: made in house; host or cells: E. coli host derived from the BL21 strain (T7 phage lysate)
# Settings: read-out: BromoScan Panel - SMARCA2: External Kd
# Experimental: Bromodomain assays. T7 phage strains displaying bromodomains were grown in parallel in 24-well blocks in an E. coli host derived from the BL21 strain. E. coli were grown to log-phase and infected with T7 phage from a frozen stock (multiplicity of infection=0.4) and incubated with shaking at 32° C. until lysis (90-150 minutes). The lysates were centrifuged (5,000×g) and filtered (0.2 μm) to remove cell debris. Streptavidin-coated magnetic beads were treated with biotinylated small molecule or acetylated peptide ligands for 30 minutes at room temperature to generate affinity resins for bromodomain assays. […] Test compounds were prepared as 1000λ stocks in 100% DMSO. Kds were determined using an 11-point 3-fold compound dilution series with one DMSO control point. […] The compounds were then diluted directly into the assays such that the final concentration of DMSO was 0.09%. All reactions performed in polypropylene 384-well plates. Each was a final volume of 0.02 ml. […] The bromodomain concentration in the eluates was measured by qPCR. Compound Handling: An 11-point 3-fold serial dilution of each test compound was prepared in 100% DMSO at 1000× final test concentration. […] The compounds were then diluted directly into the assays such that the final concentration of DMSO was 0.09%. […] Binding constants (Kds) were calculated with a standard dose-response curve using the Hill equation. Curves were fitted using a non-linear least square fit with the Levenberg-Marquardt algorithm.
# Target sequence in this assay (P51531 1378-1506 limits assumed): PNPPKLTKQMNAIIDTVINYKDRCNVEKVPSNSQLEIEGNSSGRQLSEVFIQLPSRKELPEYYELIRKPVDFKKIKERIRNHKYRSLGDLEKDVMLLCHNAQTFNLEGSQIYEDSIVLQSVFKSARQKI
row,Compound,Kd [nM]
1,"O=c1c2c(O)cccc2ccn1Cc1cn[nH]c1 [I-4, 2-((1H-pyrazol-4-yl)methyl)-8-hydroxyisoquinolin-1(2H)-one]",> 1000
2,"Oc1ccccc1-c1cc2c(C3CCNCC3)c[nH]c2nn1 [I-20, 2-(5-(Piperidin-4-yl)-7H-pyrrolo[2,3-c]pyridazin-3-yl)phenol]",< 100
3,"Nc1nnc(-c2cc(Cl)ccc2O)cc1N1CCNCC1 [I-33, 2-(6-Amino-5-piperazin-1-yl-pyridazin-3-yl)-4-chloro-phenol]",100 to 500
4,"O=C(Nc1cc(C2CCNCC2)cc2[nH]ncc12)c1ccccc1O [I-22, 2-Hydroxy-N-(6-(piperidin-4-yl)-1H-indazol-4-yl)benzamide]",> 1000
5,"Nc1ncc(-c2ncccn2)cc1N1CCNCC1 [I-14, 3-(piperazin-1-yl)-5-(pyrimidin-2-yl)pyridin-2-amine]",> 1000
6,Nc1ncc(-c2ncccn2)cc1C1CCNCC1 [I-13],> 1000
7,"Nc1ncc2c(Cl)cccc2c1C#CC1CCNCC1 [I-27, 8-Chloro-4-(piperidin-4-ylethynyl)isoquinolin-3-amine]",> 1000
8,"CC(c1ccccc1)n1cc(-c2cc(-c3cccn(C)c3=O)cnc2N)cn1 (centres unmarked) [I-1, 6′-Amino-1-methyl-5′-(1-(1-phenylethyl)-1H-pyrazol-4-yl)-[3,3′-bipyridin]-2(1H)-one]",> 1000
9,"Oc1ccccc1-c1n[nH]c2ccncc12 [I-30, 2-(1H-Pyrazolo[4,3-c]pyridin-3-yl)phenol]",> 1000
10,"O=C(Nc1ccc2c(C3CCNCC3)n[nH]c2c1)c1ccccc1O [I-23, 2-Hydroxy-N-[3-(4-piperidyl)-1H-indazol-6-yl]benzamide]",> 1000
11,"O=c1c2c(O)cccc2ccn1CC1CCNC1 (centres unmarked) [I-10, 8-hydroxy-2-(pyrrolidin-3-ylmethyl)isoquinolin-1(2H)-one]",> 1000
12,"CC(C)(C)OC(=O)N1CCC(Cn2ccc3cccc(O)c3c2=O)C1 (centres unmarked) [I-9, Tert-butyl 3-((8-hydroxy-1-oxoisoquinolin-2(1H)-yl)methyl)pyrrolidine-1-carboxylate]",> 1000
13,"O=c1c2c(O)cccc2ccn1CC1CCCN1 (centres unmarked) [I-7, 8-hydroxy-2-(pyrrolidin-2-ylmethyl)isoquinolin-1(2H)-one]",> 1000
14,COC(=O)C1=CC(=O)N2CCCN=C2S1 [I-37],> 1000
15,"Nc1nnc(-c2cccc(Cl)c2O)cc1N1CCNCC1 [I-32, 2-(6-Amino-5-(piperazin-1-yl)pyridazin-3-yl)-6-chlorophenol]",< 100
16,"Cc1ccc(O)c(-c2cc(N3CCNCC3)c(N)nn2)c1 [I-34, 2-(6-Amino-5-piperazin-1-yl-pyridazin-3-yl)-4-methyl-phenol]",> 1000
17,"O=c1c2c(O)cccc2ccn1Cc1cnn(Cc2ccccc2)c1 [I-3, 2-((1-benzyl-1H-pyrazol-4-yl)methyl)-8-hydroxyisoquinolin-1(2H)-one]",> 1000

row,Compound,Kd [nM]
1,"O=c1ncn(-c2ccccc2)c2cccc(Cl)c12 [I-11, 5-Chloro-1-phenylquinazolin-4(1H)-one]",> 1000
2,"CCCCOc1ccc(N2CCN(c3cc(-c4ccccc4O)nnc3N)CC2)cc1 [I-18, 2-(6-Amino-5-(4-(4-butoxyphenyl)piperazin-1-yl)pyridazin-3-yl)phenol]",> 1000
3,"Nc1nnc(-c2ccc(Cl)cc2O)cc1N1CCNCC1 [I-31, 2-(6-Amino-5-piperazin-1-yl-pyridazin-3-yl)-5-chloro-phenol]",> 1000
4,"Oc1ccccc1-c1cc(-c2ccc(CN3CCNCC3)cc2)[nH]n1 [I-28, 2-[5-[4-(piperazin-1-ylmethyl)phenyl]-1H-pyrazol-3-yl]phenol]",> 1000
5,"O=C(Nc1ccc2cn[nH]c2c1)c1ccccc1O [I-21, 2-Hydroxy-N-(1H-indazol-6-yl)benzamide]",> 1000
6,"O=C(NCC1CCN(c2ccccn2)CC1)c1ccccc1O [I-16, 2-Hydroxy-N-((1-(pyridin-2-yl)piperidin-4-yl)methyl)benzamide]",> 1000
7,"Nc1nnc(-c2ccn[nH]2)cc1C1CCNCC1 [I-35, 4-(4-Piperidyl)-6-(1H-pyrazol-5-yl)pyridazin-3-amine]",> 1000
8,"Nc1ncc(-c2cccc(Cl)c2)cc1N1CCNCC1 [I-15, 5-(3-chlorophenyl)-3-(piperazin-1-yl)pyridin-2-amine]",> 1000
9,COc1ccc(C(NC(=O)c2cc(-c3ccccc3O)n[nH]2)C2CC2)cc1 (centres unmarked) [I-38],> 1000
10,"Cn1cccc(-c2cnc(N)c(-c3cn[nH]c3)c2)c1=O [I-2, 3-[6-Amino-5-(1H-pyrazol-4-yl)-3-pyridyl]-1-methyl-pyridin-2-one]",> 1000
11,"c1ccc2c(c1)nnc1[nH]c(C3CCNCC3)cc12 [I-24, 2-(4-Piperidyl)-3H-pyrrolo [2,3-c]cinnoline]",501 to 1000
12,"Oc1ccccc1-c1n[nH]c2ccccc12 [I-29, 2-(1H-indazol-3-yl)phenol]",> 1000
13,"Nc1nnc(-c2cnccc2O)cc1N1CCNCC1 [I-17, 3-(6-Amino-5-(piperazin-1-yl)pyridazin-3-yl)pyridin-4-ol]",> 1000
14,"O=c1c2c(O)cccc2ccn1CC1CCN(c2ccccn2)C1 (centres unmarked) [I-5, 8-hydroxy-2-((1-(pyridin-2-yl)pyrrolidin-3-yl)methyl)isoquinolin-1(2H)-one]",> 1000
15,"CC(C)(C)OC(=O)N1CCCC1Cn1ccc2cccc(O)c2c1=O (centres unmarked) [I-6, Tert-butyl-2-((8-hydroxy-1-oxoisoquinolin-2(1H)-yl)methyl)pyrrolidine-1-carboxylate]",> 1000
16,"Oc1ccccc1-c1cc2cc[nH]c2nn1 [I-19, 2-(7H-Pyrrolo[2,3-c]pyridazin-3-yl)phenol]",< 100

# Target: T1, SMARCA2
# Experiment: SMARCA2 HTRF assay (His-tagged SMARCA2-17, anti-6His Tb cryptate)
# Settings: read-out: SMARCA2 binding Human HTRF: Average IC50
# Experimental: Sample handling: Prepared 1× Epigenetics Buffer according to manufacturer's instructions. Prepared 32 nM SMARCA2-17 (4X) with Epigenetics Buffer; Prepared 4× Tb working solution: dilute Mab Anti 6His Tb cryptate Gold in PPI-Terbium Detection buffer to 0.21 ng/l (100× dilution from stock). Prepared SMARCA2-mAb-Tb working solution by mixing equal volume of 32 nM SMARCA2 with Tb working solution. Started a half-hour timer. In a 96-well plate, prepared serial dilution of compound DMSO solutions. Placed 24 μl/well of Epigenetics Buffer to a second 96-well plate. Transferred 1 μl of the 100× compound DMSO solution to the second 96-well plate to make 4× compound working solution. Prepared 80 nM SMA-611-001H/SMA-788-001H (4×) with Epigenetics Buffer. Added 5 μl/well of SMA-611-001H into the 384-well plate. Added 5 μl/well of SMA-788-001H into the 384-well plate. Added 5 μl/well of 4× compound working solution into the 384-well plate, mix well. Added 10 µl/well of SMARCA2-mAb-Tb working solution into 384-well plate. Incubated the above mixtures at room temperature for 30 min. Data collected, processed and on EnVision. Calculated 520 nm/495 nm readouts ratio from raw data.
# Target sequence in this assay (P51531 whole entry): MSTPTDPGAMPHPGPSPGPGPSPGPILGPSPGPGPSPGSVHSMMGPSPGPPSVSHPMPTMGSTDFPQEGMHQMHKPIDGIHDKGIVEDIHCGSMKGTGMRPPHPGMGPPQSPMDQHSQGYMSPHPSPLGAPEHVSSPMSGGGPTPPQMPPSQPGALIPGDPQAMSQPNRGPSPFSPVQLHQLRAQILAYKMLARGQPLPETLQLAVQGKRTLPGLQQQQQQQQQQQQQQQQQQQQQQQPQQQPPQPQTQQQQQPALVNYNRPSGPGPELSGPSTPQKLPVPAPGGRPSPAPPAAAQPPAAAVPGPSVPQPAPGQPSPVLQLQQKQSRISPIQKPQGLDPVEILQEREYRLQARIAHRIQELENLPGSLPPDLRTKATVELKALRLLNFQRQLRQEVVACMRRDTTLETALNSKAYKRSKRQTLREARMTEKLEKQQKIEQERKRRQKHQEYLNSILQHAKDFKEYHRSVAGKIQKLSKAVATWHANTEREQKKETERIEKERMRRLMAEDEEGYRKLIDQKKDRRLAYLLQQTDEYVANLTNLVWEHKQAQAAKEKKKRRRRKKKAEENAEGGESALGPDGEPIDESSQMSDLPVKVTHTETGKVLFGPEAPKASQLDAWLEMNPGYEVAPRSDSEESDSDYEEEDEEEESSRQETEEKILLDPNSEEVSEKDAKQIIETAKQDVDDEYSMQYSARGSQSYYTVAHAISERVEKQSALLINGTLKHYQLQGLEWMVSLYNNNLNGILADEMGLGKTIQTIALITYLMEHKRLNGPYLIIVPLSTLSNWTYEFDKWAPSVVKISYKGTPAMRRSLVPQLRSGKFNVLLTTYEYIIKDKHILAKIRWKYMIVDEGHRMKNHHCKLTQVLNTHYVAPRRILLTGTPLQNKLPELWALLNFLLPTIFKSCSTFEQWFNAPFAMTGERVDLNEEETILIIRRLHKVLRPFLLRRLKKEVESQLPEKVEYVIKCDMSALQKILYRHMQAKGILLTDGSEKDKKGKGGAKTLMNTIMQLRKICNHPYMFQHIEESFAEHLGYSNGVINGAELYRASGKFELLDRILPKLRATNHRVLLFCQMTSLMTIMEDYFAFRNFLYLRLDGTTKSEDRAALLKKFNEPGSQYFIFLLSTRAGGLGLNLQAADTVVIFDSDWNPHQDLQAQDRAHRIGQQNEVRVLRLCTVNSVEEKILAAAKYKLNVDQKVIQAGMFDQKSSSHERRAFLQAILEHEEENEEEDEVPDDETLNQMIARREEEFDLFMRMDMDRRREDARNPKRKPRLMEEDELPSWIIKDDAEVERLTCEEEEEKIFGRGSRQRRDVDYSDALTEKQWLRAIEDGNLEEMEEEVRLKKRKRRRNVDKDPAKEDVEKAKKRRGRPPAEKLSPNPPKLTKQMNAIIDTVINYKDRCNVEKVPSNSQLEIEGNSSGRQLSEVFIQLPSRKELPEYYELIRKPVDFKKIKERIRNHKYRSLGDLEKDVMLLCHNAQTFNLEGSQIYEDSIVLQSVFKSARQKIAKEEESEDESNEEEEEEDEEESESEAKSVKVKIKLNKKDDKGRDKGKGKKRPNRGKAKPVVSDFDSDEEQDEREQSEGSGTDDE
row,Compound,IC50 [µM]
1,"Nc1ncc2ccccc2c1C#CC1CCNCC1 [I-25, 4-(Piperidin-4-ylethynyl)isoquinolin-3-amine]",101 to 500
2,"Oc1ccccc1-c1cc2cc[nH]c2nn1 [I-19, 2-(7H-Pyrrolo[2,3-c]pyridazin-3-yl)phenol]",1 to 100
